Data taken from paper PMC10726465, “Synthesis and Evaluation of Small Molecule Inhibitors of the Androgen Receptor N-Terminal Domain” (ACS Medicinal Chemistry Letters, 2023).
Where two headings read alike, the source gives them in different places.

Molecular target: T1, androgen receptor (AR) (Homo sapiens, UniProt P10275)
T1 sequence (P10275 1-920): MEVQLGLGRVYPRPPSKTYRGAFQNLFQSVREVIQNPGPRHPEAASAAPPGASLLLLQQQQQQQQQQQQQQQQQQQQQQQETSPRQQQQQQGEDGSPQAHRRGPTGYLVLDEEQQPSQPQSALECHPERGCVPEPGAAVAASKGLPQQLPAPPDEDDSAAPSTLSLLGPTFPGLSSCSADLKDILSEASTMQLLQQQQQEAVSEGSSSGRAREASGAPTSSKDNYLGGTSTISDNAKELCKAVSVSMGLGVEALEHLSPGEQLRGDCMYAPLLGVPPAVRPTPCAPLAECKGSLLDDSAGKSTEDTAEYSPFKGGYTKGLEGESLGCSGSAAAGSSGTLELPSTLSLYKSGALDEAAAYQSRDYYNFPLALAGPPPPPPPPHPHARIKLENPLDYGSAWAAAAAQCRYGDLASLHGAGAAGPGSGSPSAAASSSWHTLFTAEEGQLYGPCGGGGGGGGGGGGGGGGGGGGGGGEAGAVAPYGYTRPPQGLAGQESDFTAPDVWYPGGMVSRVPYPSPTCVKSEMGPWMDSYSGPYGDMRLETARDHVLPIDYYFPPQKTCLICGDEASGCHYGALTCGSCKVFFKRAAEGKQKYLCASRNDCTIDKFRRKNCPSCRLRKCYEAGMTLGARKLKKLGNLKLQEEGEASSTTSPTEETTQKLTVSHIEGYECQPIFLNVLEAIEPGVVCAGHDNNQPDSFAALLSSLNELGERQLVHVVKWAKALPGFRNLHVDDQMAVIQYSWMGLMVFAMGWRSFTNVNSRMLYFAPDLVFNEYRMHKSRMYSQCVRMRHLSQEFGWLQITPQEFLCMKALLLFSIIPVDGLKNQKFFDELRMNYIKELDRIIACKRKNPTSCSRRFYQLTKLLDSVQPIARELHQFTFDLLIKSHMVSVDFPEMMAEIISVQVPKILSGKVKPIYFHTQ
Details: for Ligand Efficiency (LE): from VCaP GRE2-luciferase IC50; for Lipophilic Ligand Efficiency (LLE): from VCaP GRE2-luciferase IC50 and cLogP

[1] = read-out: VCaP GRE2-luciferase IC50, VCaP cells, 1 nM DHT, 24 h, 0–30 µM compound

Description: VCaP cells, obtained from the American Type Culture Collection, were maintained in Dulbecco’s Modified Eagles Medium (DMEM) supplemented with 10% foetal bovine serum. Cells were maintained at 37°C without antibiotics in a humidified atmosphere
Transient transfection and Luciferase Activity Assay:
Cells at 70–80% confluence in 24 well plates, were transferred to DMEM
300ng/well of the firefly reporter plasmid, GRE2-TATA-luc using JetPEI (PolyPLUS Transfection) according to the manufacturers’ protocol.
replaced with fresh DMEM +5% CSS containing either DMSO (vehicle control) or 0– 30 µM small molecules together with 1nM DHT. Twenty four hours later, medium was aspirated, cells were washed with PBS and extracted with Passive Lysis Buffer
Cell debris was removed by centrifugation at 13,000 xg for 5min and supernatants collected. Luciferase activity was measured in triplicate, using an in-house luciferase assay buffer (13 mM MgSO4 7H2O, 30 mM
amount of total cellular protein.
Inhibition of hormone-dependent expression of prostate specific antigen (PSA):
VCaP prostate cells were treated with 1 nM DHT in the absence or presence of inhibitor. After 24 hours cells were harvested and PSA detected by Western blotting and normalised against β-actin.
Luciferase activity in cells treated with small molecules was determined as a percentage of the untreated control, which was set at 100%. Plots of activity against small molecule concentration (log) were analysed in GraphPad PRISM 5 and IC50 values for each small molecule determined.

Row | Compound | Ligand Efficiency (LE) | Lipophilic Ligand Efficiency (LLE) | IC50 [1] | activity in VCaP GRE2-luciferase assay (in words) (VCaP cells, 1 nM DHT) | decrease in activity relative to indazole 12 (VCaP GRE2-luciferase IC50 ratio) | IC50
1 | CSc1ccc(C(N)=O)cc1-c1ccno1 [Compound 7] | 0.70 | 6.7 | 7.4 µM | – | – | –
2 | CSc1ccc(C(N)=O)cc1-c1ccccc1 [Compound 8] | 0.61 | 4.6 | > 30 µM | inactive | – | –
3 | CSc1ccc(C(N)=O)cc1-c1cccs1 [Compound 9] | 0.79 | 6.3 | 0.6 µM | – | – | –
4 | CSc1ccc(C(N)=O)cc1-c1c(C)noc1C [Compound 10] | 0.63 | 6.2 | 4.7 µM | – | – | –
5 | CSc1ccc(C(N)=O)cc1-c1ccc[nH]1 [Compound 11] | – | 5.8 | > 30 µM | no activity | – | –
6 | CSc1ccc(C(N)=O)cc1-c1ccc2[nH]ncc2c1 [Compound 12] | 0.59 | 6.6 | 0.7 µM | – | – | –
7 | CSc1ccc(C(N)=O)cc1-c1ccc2[nH]ccc2c1 [Compound 13] | 0.54 | 5.1 | 10.3 µM | – | 10 fold | –
8 | CSc1ccc(C(N)=O)cc1-c1ccc2cn[nH]c2c1 [Compound 14] | 0.63 | 7.1 | 2.2 µM | – | – | –
9 | CSc1ccc(C(N)=O)cc1-c1ccc2[nH]cnc2c1 [Compound 15] | 0.62 | 6.6 | 0.92 µM | – | – | –
10 | CSc1ccc(C(N)=O)cc1-c1ccc2c(ccn2C)c1 [Compound 17] | 0.66 | 7.0 | 0.09 µM | – | – | –
11 | CSc1ccc(C(N)=O)cc1-c1ccc2nccn2c1 [Compound 18] | 0.52 | 5.7 | > 30 µM | no activity | – | –
12 | CSc1ccc(C(N)=O)cc1-c1cccc2c1CC(=O)N2 [Compound 19] | 0.49 | 5.5 | > 30 µM | no activity | – | –
13 | CSc1ccc(C(N)=O)cc1-c1ccc2ncccc2c1 [Compound 20] | 0.59 | 5.9 | 0.8 µM | – | – | –
14 | CSc1ccc(C(N)=O)cc1-c1ccc2cnccc2c1 [Compound 21] | 0.59 | 6.0 | – | – | – | 0.9 µM
15 | CSc1ccc(C(N)=O)cc1-c1cccnc1 [Compound 22] | 0.61 | 5.6 | > 30 µM | loss of activity | – | –
16 | CSc1ccc(C(N)=O)cc1-c1ccncc1 [Compound 23] | 0.61 | 5.6 | > 30 µM | loss of activity | – | –
17 | CSc1ccc(C(N)=O)cc1-c1cncnc1 [Compound 24] | 0.77 | 8.2 | 0.27 µM | – | – | –
18 | CSc1ccc(C(N)=O)cc1-c1ccc2occc2c1 [Compound 25] | 0.63 | 5.9 | 0.6 µM | – | – | –
19 | CSc1ccc(C(N)=O)cc1-c1ccc2ocnc2c1 [Compound 26] | 0.52 | 4.6 | > 30 µM | – | – | –
20 | CSc1ccc(C(N)=O)cc1-c1ccc2c(c1)CCO2 [Compound 27] | 0.52 | 4.4 | > 30 µM | – | – | –
21 | COc1ccc(-c2cc(C(N)=O)ccc2SC)cc1OC [Compound 28] | 0.49 | 4.8 | > 30 µM | Activity was abolished | – | –
22 | COc1ccc(-c2cc(C(N)=O)ccc2SC)cc1F [Compound 29] | 0.63 | 6.2 | 0.76 µM | – | – | –

Row | Compound | Ligand Efficiency (LE) | Lipophilic Ligand Efficiency (LLE) | IC50 [1] | activity in VCaP GRE2-luciferase assay (in words) (VCaP cells, 1 nM DHT) | decrease in activity relative to indazole 12 (VCaP GRE2-luciferase IC50 ratio) | IC50
23 | COc1cc(-c2cc(C(N)=O)ccc2SC)ccc1N [Compound 30] | 0.52 | 5.4 | > 30 µM | loss of activity | – | –
24 | CSc1ccc(C(N)=O)cc1-c1cccc(O)c1F [Compound 31] | 0.54 | 4.9 | > 30 µM | inactive | – | –
25 | CSc1ccc(C(N)=O)cc1-c1cc(O)cc(F)c1 [Compound 32] | 0.54 | 4.9 | > 30 µM | inactive | – | –
26 | CSc1ccc(C(N)=O)cc1-c1ccc(F)c(O)c1 [Compound 33] | 0.72 | 7.3 | 0.12 µM | – | – | –
27 | CSc1ncc(C(N)=O)cc1-c1ccc2c(cnn2C)c1 [Compound 34] | 0.49 | 6.2 | > 30 µM | loss of activity | – | –
28 | Cn1ncc2cc(-c3cc(C(N)=O)cnc3SCc3ccccc3)ccc21 [Compound 35] | 0.38 | 4.7 | > 30 µM | – | – | –
29 | Cn1ncc2cc(-c3cncc(C(N)=O)c3)ccc21 [Compound 36] | 0.54 | 6.7 | > 30 µM | – | – | –
30 | COc1ncc(C(N)=O)cc1-c1ccc2c(cnn2C)c1 [Compound 37] | 0.49 | 6.5 | > 30 µM | – | – | –
31 | CSc1c(F)cc(C(N)=O)cc1-c1ccc2c(cnn2C)c1 [Compound 38] | 0.60 | 7.3 | 0.24 µM | – | – | –
32 | CSc1cc(C(N)=O)cc(-c2ccc3c(cnn3C)c2)c1 [Compound 39] | 0.49 | 5.3 | > 30 µM | inactive | – | –
33 | Cn1ncc2cc(-c3cc(C(N)=O)ccc3SCc3ccccc3)ccc21 [Compound 40] | 0.44 | 4.9 | 2.2 µM | – | – | –
34 | Cc1ccc(C(N)=O)cc1-c1ccc2c(cnn2C)c1 [Compound 41] | 0.52 | 5.4 | > 30 µM | loss of activity | – | –
35 | CCc1ccc(C(N)=O)cc1-c1ccc2c(cnn2C)c1 [Compound 42] | 0.49 | 5.0 | > 30 µM | loss of activity | – | –
36 | Cn1ncc2cc(-c3cccc(C(N)=O)c3)ccc21 [Compound 43] | 0.54 | 5.7 | > 30 µM | no bioactivity | – | –
37 | Cn1ncc2cc(-c3cc(C(N)=O)ccc3F)ccc21 [Compound 44] | 0.52 | 5.6 | > 30 µM | inactive | – | –
38 | Cn1ncc2cc(-c3cc(C(N)=O)ccc3C(F)(F)F)ccc21 [Compound 45] | 0.48 | 5.4 | 8.6 µM | – | – | –
39 | COc1ccc(C(N)=O)cc1-c1ccc2c(cnn2C)c1 [Compound 46] | 0.49 | 5.8 | > 30 µM | – | – | –
40 | Cn1ncc2cc(-c3cc(C(N)=O)ccc3OCc3ccccc3)ccc21 [Compound 47] | 0.38 | 4.4 | > 30 µM | – | – | –
41 | Cn1ncc2cc(-c3cc(C(N)=O)ccc3OC(F)(F)F)ccc21 [Compound 48] | 0.43 | 4.6 | > 30 µM | – | – | –
42 | Cn1ncc2cc(-c3cc(C(N)=O)ccc3O)ccc21 [Compound 49] | 0.52 | 6.1 | > 30 µM | lack of activity | – | –
43 | Cn1ncc2cc(-c3cc(C(N)=O)ccc3OCC3CC3)ccc21 [Compound 50] | 0.43 | 5.1 | > 30 µM | inactive | – | –
44 | CC(C)COc1ccc(C(N)=O)cc1-c1ccc2c(cnn2C)c1 [Compound 51] | 0.43 | 4.7 | > 30 µM | inactive | – | –
